Experimental data from patent US11237156B2, “Method and composition for detection of peptide cyclization using protein tags” (Roche Sequencing Solutions, Inc., priority 2016, dated 2022).
No end group written: not given here.

Experiments:
streptavidin-Cy5 = streptavidin-Cy5 (Streptomyces avidinii, UniProt P22629); assay: Streptavidin-Cy5 binding to cyclic/linear peptide microarray (fluorescence); settings: for cyclic fluorescent intensity: cyclic subarray
Experimental: Slides were bound with […] streptavidin-Cy5 in 30 mL binding buffer for 30 minutes at room temperature. Binding buffer contained 1% alkali soluble casein and 0.05% tween-20 in 1×TBS, pH 7.4. After 30 minutes, slides were washed twice in 1×TBS buffer for 1 minute, water for 30 seconds, and spun to dryness.
Cy5 fluorescence intensity of the arrays was measured with MS200 scanner (Roche NimbleGen) at resolution 2 um, wavelength 635 nm, gain 25% and laser intensity 100%. Cy5 signal intensities were extracted using Image Extraction Software (Roche NimbleGen). Data pre-processing, normalization and statistical tests were done in R. Data visualization and analysis were performed with Spotfire 6.5.0 (Tibco, Boston, Mass.) software platform.

anti-FLAG antibody = assay: FLAG-based sequence maturation binding assay (single substitutions, signal intensity); settings: for signal intensity after single mutation of the precursor sequence: linear tag on microarray, each position substituted with remaining 19 natural amino acids
Experimental: A fragmented peptide tag was designed to be specific for the anti-FLAG antibody near the N-terminus and C-terminus of the peptide tag, while having low specificity in the middle of the sequence to assist with attachment to a microarray surface through an amino acid side chain. […] A maturation of the FLAG (GDYKDDDDKGG (SEQ ID NO: 232)) tag was performed with the tag in linear form. Each amino acid in the 11 mer peptide was individually substituted with each of the remaining 19 amino acids. As further described below, the process was repeated with modified sequences until the desired specificity at each position was achieved.
Referring to FIG. 25, the initial FLAG sequence (GDYKDDDDKGG (SEQ ID NO: 232)) was modified at each of positions 1-11 individually with each of the remaining 19 natural amino acids, and signal intensity (y-axis) was measured.

Cy5 anti-Myc mouse mAB = assay: Cyclization tag assay, anti-Myc binding to peptide microarray; settings: cyclization tag compared with fragmented control
Excerpt: (§1) With the matured linear protein tags at hand, the linear peptides were formed on a microarray where the tags were fragmented across the N- and C-terminus of the peptide such that upon cyclization, the complete protein tag is formed. The peptides were split around the low specificity position identified according to Examples 2 and 4 (position 6, for both tags), and that position was substituted with allyl-E (see FIG. 1). A flexible linker (Z) was inserted between the two peptide tag fragments to increase flexibility. Z was a 3:1 mixture of Gly:Ser. The linear peptide sequences are shown in Table 1 for the FLAG- and Myc-based sequenced in the row titled “Cyclization tag.” In addition to the cyclization tags, two controls were compared to each tag. The matured linear sequences identified according to Examples 2 and 4 (shown in Table 1 in the row titled “Linear control”) were formed on the microarray and tested as positive controls. […]
(§2) Cy3 and Cy5 fluorescence intensity of the arrays was measured with MS200 scanner (Roche NimbleGen) at resolution 2 um, wavelength 532 nm or 635 nm, gain 25% and laser intensity 100%. […]

anti-Myc antibody = assay: Myc sequence maturation binding assay (single substitutions, signal intensity)
Excerpt: A fragmented protein tag was designed to be specific for the anti-Myc antibody near the N-terminus and C-terminus of the peptide tag, while having low specificity in the middle of the sequence to assist with attachment to a microarray surface through an amino acid side chain. It is to be understood that in some embodiments the amino acid attached to the microarray surface can be near either end of the peptide tag and not necessary closer to the middle of the peptide tag. […] A maturation of the Myc (EQKLISEEDLG (SEQ ID NO: 233)) tag was performed with the tag in the linear form. Each amino acid in the 11 mer peptide was substituted with each of the remaining 19 amino acids. As further described below, the process was repeated until the desired specificity at each position was achieved.
Referring to FIG. 29, the initial Myc sequence (EQKLISEEDLG (SEQ ID NO: 233)) was modified at positions 1-11 and signal intensity (y-axis) was measured.

Cy3 anti-FLAG mouse mAB = assay: Cyclization tag assay, anti-FLAG binding to peptide microarray; settings: cyclization tag compared with fragmented control
Excerpt: as §1, §2

[1] = extension of HPQ-specific design, all J combinations of JXXHPQXXJU
[2] = single substitution scan of the matured tag

Sequence of streptavidin-Cy5 (P22629 25-183): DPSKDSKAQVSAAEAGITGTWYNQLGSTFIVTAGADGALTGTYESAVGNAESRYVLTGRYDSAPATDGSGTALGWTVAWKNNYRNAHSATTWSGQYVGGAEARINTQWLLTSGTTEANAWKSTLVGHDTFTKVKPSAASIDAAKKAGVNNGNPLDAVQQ

QNDHPQNGGU (cyclo(QNDHPQNGGE); also: Glu10 surface-linked) [cyclic QNDHPQNGGU]
log fold change (log FC) between cyclic and linear fluorescent intensity (streptavidin-Cy5; extension of HPQ-specific design, JXXHPQXXJU): high log FC | cyclic fluorescent intensity (streptavidin-Cy5; [1]): high cyclic intensity

WDYKDFDQKGG [G1W, D6F, D8Q-FLAG tag, matured FLAG tag, position 8 mutated to glutamine]
specificity by sequence position for the anti-FLAG antibody (anti-FLAG antibody; [2]): specificity for the anti-FLAG antibody on the N-terminus (position 1-4) and the C-terminus (position 7-8)

EEDWGZZZZEQKLI{allyl-E} (EEDWGXXXXEQKLIE; not fully specified (residue 15); printed as EEDWGZZZZEQKLI{allyl-E}; also: X6-X9: Gly or Ser mixture) [Myc cyclization tag, fragmented Myc-based tag on microarray, Z = 3:1 mixture of Gly:Ser, cyclized via allyl-E]
median fluorescence (Cy5 anti-Myc mouse mAB): higher than that of the fragmented control peptides

LYDHPQNGGU (cyclo(LYDHPQNGGE); also: Glu10 surface-linked) [cylic LYDHPQNGGU]
cyclic fluorescent intensity (streptavidin-Cy5; [1]): highest cyclic intensity

EQKLISEEDWG [L10W-Myc tag]
signal intensity after single mutation of the precursor sequence (anti-Myc antibody; linear tag on microarray, positions 1-11 modified): strongest increase in signal intensity | specificity by sequence position for the anti-Myc antibody (anti-Myc antibody; [2]): strong specificity on the N-terminus (position 1-5) and moderate specificity on the C-terminus

WDYKDDDDKGG [G1W-FLAG tag]
signal intensity after single mutation of the precursor sequence (anti-FLAG antibody): strongest increase in signal intensity

WDYKDFDDKGG [G1W, D6F-FLAG tag, G1W-FLAG tag with position 6 mutated to phenylalanine]
signal intensity after single mutation of the precursor sequence (anti-FLAG antibody): strongest increase in signal intensity

DQKGGZZZZWDYKD{allyl-E} (DQKGGXXXXWDYKDE; not fully specified (residue 15); printed as DQKGGZZZZWDYKD{allyl-E}; also: X6-X9: Gly or Ser mixture) [FLAG cyclization tag, fragmented FLAG-based tag on microarray, Z = 3:1 mixture of Gly:Ser, cyclized via allyl-E]
median fluorescence (Cy3 anti-FLAG mouse mAB): higher than that of the fragmented control peptides

NQpWU [cylic NQpWU]
cyclic fluorescent intensity (streptavidin-Cy5; peptide library of format XXXXU): highest cyclic fluorescent intensity
